In BindingDB's records for PubMed 3252029 (University of Illinois At Chicago, 1988):
Values joined by “and” are separate entries in the source; they are usually repeats but may differ in a detail not shown here. Equal entries are not always repeated.

target: T1, Adenosine receptor A1 (Gallus gallus, UniProt P49892)
T1 sequence (P49892 whole entry): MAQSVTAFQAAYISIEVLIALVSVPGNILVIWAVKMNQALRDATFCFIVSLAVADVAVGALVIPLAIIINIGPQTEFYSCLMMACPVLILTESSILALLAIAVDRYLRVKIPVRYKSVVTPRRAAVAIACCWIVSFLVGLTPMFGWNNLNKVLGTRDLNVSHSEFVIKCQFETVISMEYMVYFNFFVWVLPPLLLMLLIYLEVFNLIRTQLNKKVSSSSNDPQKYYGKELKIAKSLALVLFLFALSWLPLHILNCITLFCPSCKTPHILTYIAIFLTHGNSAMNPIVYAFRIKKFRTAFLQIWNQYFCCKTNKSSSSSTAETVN

| Ki | SMILES |
| --- | --- |
| 2070 nM and 790 nM | CCn1c(=O)c2[nH]c(-c3ccccc3)nc2n(CC)c1=O [1,3-Diethyl-8-phenyl-3,7-dihydro-purine-2,6-dione] |
| 2.5 nM | OC[C@H]1O[C@@H](n2cnc3c(NC4CCCCC4)ncnc32)[C@H](O)[C@@H]1O [CHA] |

| SMILES | Ki |
| --- | --- |
| CCNC(=O)[C@H]1O[C@@H](n2cnc3c(N)ncnc32)[C@H](O)[C@@H]1O | 14.4 nM and 16.9 nM |
